Measured values as given in the Deep4Chem optical property database.
Values belong to the molecule of their own block, whether it stands above or below them.

Assay: photoluminescence quantum yield (fraction); solvent given as SMILES

photoluminescence quantum yield (in CO): 0.27
photoluminescence quantum yield (in CS(C)=O): 0.55
photoluminescence quantum yield (in O): 0.05
SMILES: CCCN1/C(=C/C=C/C=C/C2=[N+](CCC)c3ccccc3C2(C)C)C(C)(C)c2ccccc21

SMILES: CCCN(c1ccccc1)c1ccc2c(c1)C(CC)(CC)c1cc(/C=C/c3ccc(/C=C(\C#N)C(=O)O)s3)ccc1-2
photoluminescence quantum yield (in C1CCOC1): 0.355
photoluminescence quantum yield (in C1COCCO1): 0.862
photoluminescence quantum yield (in CC#N): 0.229
photoluminescence quantum yield (in CC(C)=O): 0.486
photoluminescence quantum yield (in CCOC(C)=O): 0.584
photoluminescence quantum yield (in CN(C)C=O): 0.894
photoluminescence quantum yield (in CS(C)=O): 0.611
photoluminescence quantum yield (in ClCCl): 0.624

photoluminescence quantum yield (in ClCCl): 0.25
SMILES: C(=C\c1ccc(-c2cccc3ccccc23)s1)/c1cccs1

SMILES: CCn1c2cc(OC)ccc2c2c3nsnc3c3c4ccc(OC)cc4n(CC)c3c21
photoluminescence quantum yield (in CN(C)C=O): 0.49
photoluminescence quantum yield (in Cc1ccccc1): 0.41
photoluminescence quantum yield (in ClCCl): 0.44

photoluminescence quantum yield (in ClCCl): 0.16
SMILES: COc1ccc2cc(C#CC3=C4CCc5ccccc5C4=[O+][B-](F)(F)O3)ccc2c1

SMILES: Cc1cc2ccccc2cc1C
photoluminescence quantum yield (in C1CCCCC1): 0.56

photoluminescence quantum yield (in CC#N): 0.73
SMILES: Cc1ccc(C#Cc2cc3ccccc3oc2=O)cc1

photoluminescence quantum yield (in CO): 0.82
SMILES: CCN(CC)c1ccc(C2=C3C(C)=CC(/C=C/c4ccc(OCCCN=[N+]=[N-])cc4)=[N+]3[B-](F)(F)n3c(C)cc(C)c32)cc1

SMILES: CC1(C)c2ccccc2N(c2c(F)cc(-c3nnc(-c4ccccc4)o3)cc2F)c2ccccc21
photoluminescence quantum yield (in Cc1ccccc1): 0.24
photoluminescence quantum yield (in O=P(c1ccccc1)(c1ccccc1)c1ccccc1Oc1ccccc1P(=O)(c1ccccc1)c1ccccc1): 0.72

photoluminescence quantum yield (in ClCCl): 0.77
SMILES: C[Si]1(C)c2cc(-c3cccs3)ccc2C=Cc2ccc(-c3cccs3)cc21

photoluminescence quantum yield (in ClCCl): 0.04
SMILES: O=C1c2ccccc2-c2nc3ccccc3n21

photoluminescence quantum yield (in CC#N): 0.04
photoluminescence quantum yield (in CCCCCC): 0.03
SMILES: CN(C)c1ccc(/C=C/c2ccccc2)cc1

photoluminescence quantum yield (in ClCCl): 0.6
SMILES: COc1ccc(-c2c3ccccc3c(C#Cc3ccccc3)c3cc4ccccc4cc23)cc1

SMILES: Cc1cc(C)c(B(c2ccc(-c3nc4c5ccccc5c5ccccc5c4[nH]3)cc2)c2c(C)cc(C)cc2C)c(C)c1
photoluminescence quantum yield (in C1CCOC1): 0.79
photoluminescence quantum yield (in CC(C)=O): 0.71
photoluminescence quantum yield (in CS(C)=O): 0.76
photoluminescence quantum yield (in Cc1ccccc1): 0.92
photoluminescence quantum yield (in ClCCl): 0.8

photoluminescence quantum yield (in CCO): 0.132
SMILES: Cc1ccc(CN2/C(=C/C=C3\CCCC(/C=C/C4=[N+](Cc5ccc(C)cc5)c5ccccc5C4(C)C)=C3Cl)C(C)(C)c3ccccc32)cc1

SMILES: C(#Cc1nc2ccccc2s1)c1ccc(N(c2ccccc2)c2ccccc2)cc1
photoluminescence quantum yield (in Cc1ccccc1): 0.62

SMILES: COc1ccc(/C=C/C=C/C=C/c2ccc([N+](=O)[O-])cc2)cc1
photoluminescence quantum yield (in C1CCOC1): 0.44
photoluminescence quantum yield (in C1COCCO1): 0.57
photoluminescence quantum yield (in CC1CCCCC1): 0.21
photoluminescence quantum yield (in CC#N): 0.013
photoluminescence quantum yield (in CO): 0.002
photoluminescence quantum yield (in CS(C)=O): 0.03
photoluminescence quantum yield (in Cc1ccccc1): 0.63
photoluminescence quantum yield (in ClC(Cl)Cl): 0.14
photoluminescence quantum yield (in ClCCl): 0.074

photoluminescence quantum yield (in CC#N): 0.38
photoluminescence quantum yield (in ClCCl): 0.53
SMILES: COC(=O)c1cc(=O)n(C)c2cc(-c3cc(OC)c(OC)c(OC)c3)sc12

SMILES: CC(=O)c1ccc2ccc3cccc4ccc1c2c34
photoluminescence quantum yield (in C1CCOC1): 0.002
photoluminescence quantum yield (in CC#N): 0.002
photoluminescence quantum yield (in CCCCCC): 0.002
photoluminescence quantum yield (in CCO): 0.012
photoluminescence quantum yield (in CN(C)C=O): 0.002
photoluminescence quantum yield (in CO): 0.014
photoluminescence quantum yield (in Cc1ccccc1): 0.003
photoluminescence quantum yield (in ClCCl): 0.002

SMILES: Cc1ccc(-c2c3ccc([nH]3)c3nc(c(-c4ccc([N+](=O)[O-])cc4)c4ccc([nH]4)c4ccc([nH]4)c(-c4ccc(C)cc4)c4ccc2o4)C=C3)cc1
photoluminescence quantum yield (in C1CCOC1): 0.018
photoluminescence quantum yield (in Cc1ccccc1): 0.083
photoluminescence quantum yield (in c1ccccc1): 0.098

SMILES: CCOC(=O)/C(C#N)=C/c1cc2c3ccccc3n(C)c2cc1OC
photoluminescence quantum yield (in C1CCOC1): 0.001
photoluminescence quantum yield (in CC#N): 0.003
photoluminescence quantum yield (in CCOC(C)=O): 0.004
photoluminescence quantum yield (in CN(C)C=O): 0.005
photoluminescence quantum yield (in CO): 0.003
photoluminescence quantum yield (in CS(C)=O): 0.01
photoluminescence quantum yield (in Cc1ccccc1): 0.003
photoluminescence quantum yield (in ClC(Cl)Cl): 0.004
photoluminescence quantum yield (in ClCCl): 0.003

photoluminescence quantum yield (in C1CCCCC1): 0.91
SMILES: Cc1cc(C)c(B2c3cc(C(C)(C)C)ccc3-c3c(-c4ccccc4)ccc4cc(C(C)(C)C)cc2c34)c(C)c1

photoluminescence quantum yield (in C1COCCO1): 0.95
photoluminescence quantum yield (in CC#N): 0.87
photoluminescence quantum yield (in CO): 0.92
photoluminescence quantum yield (in ClCCl): 0.95
SMILES: COC(=O)c1nc2c(OCc3ccccc3)nc(N)nc2n1Cc1ccccc1

photoluminescence quantum yield (in C1CCCCC1): 0.32
photoluminescence quantum yield (in CC#N): 0.29
SMILES: C=Cc1ccc(OC)c(OC)c1

photoluminescence quantum yield (in ClCCl): 0.13
SMILES: CCCCCCOc1cc(/C=C/c2cc(OCCCCCC)c(/C=C/c3cc(OCCCCCC)c(C=C(C#N)C#N)cc3OCCCCCC)cc2OCCCCCC)c(OCCCCCC)cc1C=C(C#N)C#N

photoluminescence quantum yield (in CCO): 0.48
SMILES: Cc1ccc2cc3cc(C)ncc3cc2c1

photoluminescence quantum yield (in C1CCOC1): 0.686
SMILES: CC(C)(C)c1ccc(-c2c(-c3ccc(N(c4ccccc4)c4ccccc4)cc3)c(C#N)c(-c3ccc(N(c4ccccc4)c4ccccc4)cc3)c(-c3ccc(C(C)(C)C)cc3)c2-c2ccc(C(C)(C)C)cc2)cc1

photoluminescence quantum yield (in ClC(Cl)Cl): 0.046
SMILES: F[B-]1(F)OC(c2ccccc2)=Cc2c3ccccc3cc[n+]21

photoluminescence quantum yield (in ClC(Cl)Cl): 0.61
SMILES: CCCCCCN1C(=O)c2cccc3c(-c4scc5c4OCCO5)ccc(c23)C1=O

photoluminescence quantum yield (in ClCCl): 0.0137
SMILES: COc1cc(C2=CC(c3ccccc3)=C(c3ccccc3)C2)cc(OC)c1OC

photoluminescence quantum yield (in CCO): 0.841
SMILES: Cc1c(COC(=O)c2ccccc2Br)n2c(OCC(=O)c3ccccc3Br)c(C)c(=O)n2c1=O

photoluminescence quantum yield (in ClCCl): 0.46
SMILES: CCN1c2ccc(C3=CC(c4ccccc4)=[O+][B-](F)(F)O3)cc2Sc2cc(C3=CC(c4ccccc4)=[O+][B-](F)(F)O3)ccc21

SMILES: Cc1c(COC(=O)Cc2ccccc2)n2c(OCC(=O)Cc3ccccc3)c(C)c(=O)n2c1=O
photoluminescence quantum yield (in CCO): 0.836

photoluminescence quantum yield (in C1CCCCC1): 0.26
SMILES: CC(C)(C)c1ccc(-c2ccc(C(C)(C)C)cc2)cc1

photoluminescence quantum yield (in C1CCCCC1): 0.0006
photoluminescence quantum yield (in C1COCCO1): 0.001
photoluminescence quantum yield (in CC#N): 0.002
photoluminescence quantum yield (in CCO): 0.004
photoluminescence quantum yield (in OCC(F)(F)F): 0.004
SMILES: Cc1cc(=O)oc2c1cc(Br)c1occ(C)c12

photoluminescence quantum yield (in CC#N): 0.41
SMILES: O=C1c2ccccc2C2=C(c3ccccn3)NN=C(c3ccccn3)C2c2ccccc21 (stereo not given)

photoluminescence quantum yield (in CC#N): 0.3
photoluminescence quantum yield (in CCOC(C)=O): 0.48
photoluminescence quantum yield (in CN(C)C=O): 0.2
photoluminescence quantum yield (in CS(C)=O): 0.23
photoluminescence quantum yield (in c1ccccc1): 0.5
SMILES: CCOC(=O)CN(CC(=O)OCC)c1ccc(-c2cc(-c3ccncc3)nc(-c3ccncc3)c2)cc1

photoluminescence quantum yield (in CC1CCCO1): 0.8
SMILES: CC1=CC(/C=C/c2ccc3ccc4cccc5ccc2c3c45)=[N+]2C1=C(c1ccccc1)c1c(C)cc(/C=C/c3ccc4ccc5cccc6ccc3c4c56)n1[B-]2(F)F

photoluminescence quantum yield (in ClC(Cl)Cl): 0.01
SMILES: F[B-]1(F)n2cccc2C(c2ccccc2)=C2C=CC(c3ccc(OC4=[N+]5C(=C(c6ccccc6)c6cc(Br)c(Br)n6[B-]5(F)F)C=C4Br)cc3)=[N+]21

photoluminescence quantum yield (in ClCCl): 0.004
SMILES: COc1cccc2c1oc(=O)c1c(=O)oc3cc(O)ccc3c12
